53 compounds from the CombiSolv-Exp solvation set (Vermeire and Green 2021) can be followed below.

Each structure is given as a SMILES string.

The data set in a line: solvent given as SMILES.
Where [1] appears, read: in CCCCCCCCC=CCCCCCCCC(=O)OCC(COC(=O)CCCCCCCC=CCCCCCCCC)OC(=O)CCCCCCCC=CCCCCCCCC

Regarding `Cc1c(Cl)c(Cl)c(Cl)c(Cl)c1Cl`, the “solvation free energy, 298 K” value under setting [1] was -9.88 kcal/mol and the “solvation free energy, 298 K” value (in O) was -2.02 kcal/mol.

`COc1ccc(C=O)cc1O`: the “solvation free energy, 298 K” value (in O) is -9.04 kcal/mol.

In the case of `CCCCCCOC(C)=O`, the “solvation free energy, 298 K” value is -5.94 kcal/mol (in CCCCCCCCCCCCCCCC); -6.26 kcal/mol (in CCCCCCCCO); -4.6 kcal/mol (in NC=O); -2.29 kcal/mol (in O); -2.44 kcal/mol (in [2H]O[2H]).

As to `CC(=O)OCCc1ccccc1`, the “solvation free energy, 298 K” value (in O) is -5.5 kcal/mol.

In the case of `COc1cc(C=O)c(Cl)c(OC)c1O`, the “solvation free energy, 298 K” value (in O) was -7.78 kcal/mol.

For the compound `C=C1CCC(C(C)C)c2cc(C)ccc21` (stereo unspecified), the “solvation free energy, 298 K” value (in O) is -1.08 kcal/mol.

Regarding `Brc1cccc(Br)c1`, the “solvation free energy, 298 K” value (in O) was -1.99 kcal/mol.

For `O=C(O)CCCc1ccccc1`, the “solvation free energy, 298 K” value (in O) is -9.07 kcal/mol.

Turning to `CCCCCCBr`, under “in O”, the “solvation free energy, 298 K” value stood at 0.18 kcal/mol.

`Clc1ccc(Cl)c(-c2cc(Cl)c(Cl)c(Cl)c2)c1`: the “solvation free energy, 298 K” value (in O) was -3.61 kcal/mol.

For the compound `O=c1cc(Cl)[nH]c(=O)[nH]1`, the “solvation free energy, 298 K” value (in O) is -15.8 kcal/mol.

Turning to `Clc1ccc(-c2ccc(Cl)cc2)cc1`, the “solvation free energy, 298 K” value by setting is: under setting [1], -10.9 kcal/mol; (in CCCCCCCCO) -10.7 kcal/mol; (in O) -2.91 kcal/mol.

`Cc1cc(C)cc(C)c1`: the “solvation free energy, 298 K” value (in O) was -0.77 kcal/mol; the “solvation free energy, 298 K” value (in OCCO) was -3.76 kcal/mol; the “solvation free energy, 298 K” value (in OCCOCCO) was -4.65 kcal/mol.

Consider `Clc1ccc(Cl)cc1`, for which the “solvation free energy, 298 K” value reads like this: (in CCCCCC) -6.06 kcal/mol; (in CCCCCCC) -5.81 kcal/mol; under setting [1], -6.7 kcal/mol; (in O) -1.01 kcal/mol.

Take `O=[N+]([O-])c1ccc(O)cc1`: the “solvation free energy, 298 K” value (in CCCCCC) is -7.93 kcal/mol; the “solvation free energy, 298 K” value (in CCCCCCC) was -7.93 kcal/mol; the “solvation free energy, 298 K” value (in CCCCCCCC) was -7.93 kcal/mol; the “solvation free energy, 298 K” value (in CCCCCCCCCC) is -7.93 kcal/mol; the “solvation free energy, 298 K” value (in CCCCOCCCC) is -11.8 kcal/mol; the “solvation free energy, 298 K” value (in O) was -10.7 kcal/mol.

Regarding `CCCCCCCCCCOC(=O)c1ccccc1C(=O)OCC`, under “in O”, the “solvation free energy, 298 K” value was -6.78 kcal/mol.

Turning to `CCCCCCCCP(=O)(CCCCCCCC)CCCCCCCC`, the “solvation free energy, 298 K” value (in O) is -15.5 kcal/mol.

For the compound `C=C1CC=C(C(C)C)CC1`, the “solvation free energy, 298 K” value (in O) turned out to be 0.05 kcal/mol.

In the case of `CCCC[N+](=O)[O-]`, the “solvation free energy, 298 K” value reads like this: (in CCCCCC) -4.64 kcal/mol; (in O) -3.1 kcal/mol.

Turning to `Nc1cc([N+](=O)[O-])cc(Cl)c1O`, where the note is “in O”, the “solvation free energy, 298 K” value is -10.2 kcal/mol.

For the compound `C1=CCCC=C1`, the “solvation free energy, 298 K” value (in C1CCC2CCCCC2C1) is -4.14 kcal/mol; the “solvation free energy, 298 K” value (in C1CCC(C2CCCCC2)CC1) is -4.06 kcal/mol; the “solvation free energy, 298 K” value (in CN1CCCC1=O) is -3.77 kcal/mol; the “solvation free energy, 298 K” value (in O) is -0.26 kcal/mol; the “solvation free energy, 298 K” value (in c1ccc2c(c1)CCCC2) is -4.31 kcal/mol; the “solvation free energy, 298 K” value (in c1ccc(C2CCCCC2)cc1) was -4.19 kcal/mol.

As for `Cc1ccnc(C)c1`, the “solvation free energy, 298 K” value (in O) is -4.86 kcal/mol.

Turning to `CCCCCCCCCCCCCCCCCC`, the “solvation free energy, 298 K” value was -12.1 kcal/mol (in CC(=O)N(C)C); -12.4 kcal/mol under setting [1]; -11.9 kcal/mol (in CCCCOC(C)=O); -10.3 kcal/mol (in CCO); 4.15 kcal/mol (in O).

Regarding `CCCCN(CC)N=O`, the “solvation free energy, 298 K” value reads like this: (in CC(C)CC(C)(C)C) -6.49 kcal/mol; (in O) -5.25 kcal/mol.

On to `CCCCCCCCCCOC(=O)c1ccccc1C(=O)OCCCCCCCCCC`, for which, where the note is “in O”, the “solvation free energy, 298 K” value is -6.22 kcal/mol.

As for `CN1CCOCC1`, under “in O”, the “solvation free energy, 298 K” value was -6.32 kcal/mol.

For `c1ccc2c(c1)oc1ccccc12`, the “solvation free energy, 298 K” value by setting is: (in CC(=O)N(C)C) -9.94 kcal/mol; (in CN1CCCC1=O) -10 kcal/mol; (in O) -3.31 kcal/mol.

Take `CCCCCCCCCCO`: the “solvation free energy, 298 K” value was -9.77 kcal/mol (in CC(C)O); -7.69 kcal/mol (in CCCCCC); -7.87 kcal/mol (in CCCCCCCC); -9.64 kcal/mol (in CCCCCCCCCO); -9.73 kcal/mol (in CCCO); -3.69 kcal/mol (in O).

With `C=C1C2CCC(C2)C1(C)CCC=C(C)C` (stereo unspecified), under “in O”, the “solvation free energy, 298 K” value was 0.35 kcal/mol.

Take `C1COCCOCCOCCOCCOC1`: the “solvation free energy, 298 K” value runs as follows: (in Cc1cccc(C)c1) -11.4 kcal/mol; (in O) -12.5 kcal/mol.

Take `Clc1cc(Cl)cc(-c2cc(Cl)ccc2Cl)c1`: the “solvation free energy, 298 K” value (in O) was -2.73 kcal/mol.

Consider `Nc1ccc(Cl)cc1`, for which the “solvation free energy, 298 K” value (in O) was -5.91 kcal/mol.

Regarding `CCC(=O)c1c(C)[nH]n(-c2ccccc2)c1=O`, for the setting “in O”, the “solvation free energy, 298 K” value is -9.74 kcal/mol.

For the compound `O=C(OC1CCCCC1)c1ccccc1C(=O)OC1CCCCC1`, the “solvation free energy, 298 K” value (in O) was -9.07 kcal/mol.

`Oc1ccc(Cl)c(Cl)c1`: for the setting “in O”, the “solvation free energy, 298 K” value was -7.29 kcal/mol.

Take `CC(C(=O)O)c1ccc(C(=O)c2cccs2)cc1` (stereo unspecified): under “in O”, the “solvation free energy, 298 K” value is -13.9 kcal/mol.

For the compound `C#CCCCCCC`, the “solvation free energy, 298 K” value reads like this: (in CN1CCCC1=O) -4.98 kcal/mol; (in CN(C)C=O) -4.99 kcal/mol; (in CS(C)=O) -4.42 kcal/mol; (in N#CCCCCC#N) -4.31 kcal/mol; (in NCCO) -3.17 kcal/mol; (in O) 0.71 kcal/mol.

Consider `CCNc1nc(NC(C)C)nc(OC)n1`, for which the “solvation free energy, 298 K” value (in O) was -10.2 kcal/mol.

With `COC(=O)c1ccc(Cl)c([N+](=O)[O-])c1`, the “solvation free energy, 298 K” value is, setting by setting: (in CN(C)C=O) -11.6 kcal/mol; (in O) -6.89 kcal/mol.

On to `Clc1ccc(-c2cc(Cl)c(Cl)c(Cl)c2)cc1Cl`, for which the “solvation free energy, 298 K” value (in O) was -3.79 kcal/mol.

Consider `CC(Cl)CCl` (stereo unspecified), for which the “solvation free energy, 298 K” value is -4.17 kcal/mol (in CCCCCC), -4.03 kcal/mol (in CCCCCCCCO) and -4.65 kcal/mol (in ClC(Cl)(Cl)Cl).

`CSSC`: the “solvation free energy, 298 K” value (in O) was -1.74 kcal/mol.

As to `CCCCCCCCCCCCCCCO`, the “solvation free energy, 298 K” value by setting is: (in CCCCOCCCC) -12.4 kcal/mol; (in O) -2.92 kcal/mol.

For `O=C(O)c1ccccc1Cl`, the “solvation free energy, 298 K” value reads like this: (in CC(C)=O) -10.4 kcal/mol; (in CN(C)C=O) -11.1 kcal/mol; (in O) -7.53 kcal/mol.

Consider `Nc1ccc(S(N)(=O)=O)cc1`, for which, where the note is “in O”, the “solvation free energy, 298 K” value was -14.8 kcal/mol.

For the compound `CCCc1ccc(O)c(OC)c1`, the “solvation free energy, 298 K” value (in O) is -5.26 kcal/mol.

On to `CC(=O)OCCC(C)C`, for which the “solvation free energy, 298 K” value runs as follows: (in CCCCCCCCCCCCCCCC) -4.96 kcal/mol; (in CCCCCCCCO) -5.34 kcal/mol; (in O) -2.29 kcal/mol; (in [2H]O[2H]) -2.36 kcal/mol.

For `Nc1ncnc2c1ncn2C1CCC(CO)O1` (stereo unspecified), the “solvation free energy, 298 K” value (in C=CCCCCCCC=C) was -14.8 kcal/mol; the “solvation free energy, 298 K” value (in C=CCCCCCCCCCCCCCC) is -14.7 kcal/mol; the “solvation free energy, 298 K” value (in O) is -20.5 kcal/mol.

For `Oc1ccc(-c2ccccc2)cc1`, the “solvation free energy, 298 K” value by setting is: (in CC(C)CC(C)(C)C) -9.58 kcal/mol; (in CCCCOCCCC) -12.8 kcal/mol; (in O) -8.89 kcal/mol.

`CC(C)O`: the “solvation free energy, 298 K” value is -4.75 kcal/mol (in C1CCOC1); -4.37 kcal/mol (in C1COCCO1); -4.42 kcal/mol (in CC#N); -4.41 kcal/mol (in CC(=O)CC(C)=O); -5.29 kcal/mol (in CC(=O)N(C)C); -5.02 kcal/mol (in CC(C)(C)O). Also, the “solvation free energy, 298 K” value (in CC(C)CC(C)(C)C) is -2.9 kcal/mol; the “solvation free energy, 298 K” value (in CC(C)CCCC(C)CCCC(C)CCCCC(C)CCCC(C)CCCC(C)C) is -2.29 kcal/mol; the “solvation free energy, 298 K” value (in CC(Cl)(Cl)Cl) is -4.07 kcal/mol; the “solvation free energy, 298 K” value (in CCC(C)=O) was -4.54 kcal/mol; the “solvation free energy, 298 K” value (in CCCC(C)O) was -4.85 kcal/mol; the “solvation free energy, 298 K” value (in CCCCCC) was -2.76 kcal/mol. In addition, the “solvation free energy, 298 K” value (in CCCCCCC) is -2.71 kcal/mol; the “solvation free energy, 298 K” value (in CCCCCCCCCCCCCCCC) is -2.37 kcal/mol; the “solvation free energy, 298 K” value (in CCCCCCCCCCO) is -4.49 kcal/mol; the “solvation free energy, 298 K” value (in CCCCCCCCO) is -4.61 kcal/mol; the “solvation free energy, 298 K” value (in CCCCCO) is -4.99 kcal/mol; the “solvation free energy, 298 K” value (in CCCCN(C=O)CCCC) is -4.71 kcal/mol. The “solvation free energy, 298 K” value is -5.02 kcal/mol (in CCCCO); -5.07 kcal/mol (in CCCO); -3.74 kcal/mol (in CCCOCCC); -5.2 kcal/mol (in CCN(CC)C(C)=O); -5.09 kcal/mol (in CCNC(C)=O); -5.03 kcal/mol (in CCNC=O). Also, the “solvation free energy, 298 K” value (in CCO) is -5.27 kcal/mol; the “solvation free energy, 298 K” value (in CCOC(=O)c1ccccc1C(=O)OCC) was -3.75 kcal/mol; the “solvation free energy, 298 K” value (in CCOC(C)=O) was -4.13 kcal/mol; the “solvation free energy, 298 K” value (in CCOCCO) was -4.87 kcal/mol; the “solvation free energy, 298 K” value (in CCOP(=O)(OCC)OCC) is -4.97 kcal/mol; the “solvation free energy, 298 K” value (in CN1CCCC1=O) is -5.12 kcal/mol. Moreover, the “solvation free energy, 298 K” value reads like this: (in CN1CCN(C)C1=O) -5.1 kcal/mol; (in CNC(C)=O) -5.12 kcal/mol; (in CO) -5.53 kcal/mol; (in COC(C)(C)C) -4.22 kcal/mol; (in COC(C)=O) -4.46 kcal/mol; (in Cc1ccc(C)cc1) -3.39 kcal/mol. Moreover, the “solvation free energy, 298 K” value reads like this: (in Cc1cccc(C)c1) -3.33 kcal/mol; (in O) -4.76 kcal/mol; (in O=CN1CCOCC1) -4.53 kcal/mol; (in OCCOCCO) -4.77 kcal/mol; (in [2H]O[2H]) -4.86 kcal/mol.

In the case of `CCCC1CCCCC1`, the “solvation free energy, 298 K” value was -4.57 kcal/mol (in CN1CCCC1=O), -1.91 kcal/mol (in NC=O) and 1.8 kcal/mol (in O).

As to `O=CN1CCOCC1`, the “solvation free energy, 298 K” value (in O) is -9.41 kcal/mol.

For `CCc1ccc(O)cc1`, the “solvation free energy, 298 K” value is -7.11 kcal/mol (in C=CCCCCCCC=C); -6.53 kcal/mol (in CCCCCC); -6.47 kcal/mol (in CCCCCCC); -6.44 kcal/mol (in CCCCCCCC); -7.85 kcal/mol (in Cc1ccc(C)cc1); -7.83 kcal/mol (in Cc1cccc(C)c1). Also, the “solvation free energy, 298 K” value is, setting by setting: (in Cc1ccccc1C) -7.87 kcal/mol; (in O) -6.14 kcal/mol.
